Data reported in patent publication US20100222396A1 (Novartis AG, priority 2009, published 2010).
pKd: −log10 of the molar value.

Legend:
[1] = target: T1, human orexin 1 receptor (hOx1R) (Homo sapiens, UniProt O43613); experiment: Calcium accumulation in cells (FLIPR), antagonism of orexin A, hOx1R; type: cell-based; settings: for pKd: cells expressing human orexin 1 receptor, IC50 vs orexin A converted by Cheng and Prusoff correction
T1 construct: expressed in transfected cells
T1 sequence (O43613 1-425): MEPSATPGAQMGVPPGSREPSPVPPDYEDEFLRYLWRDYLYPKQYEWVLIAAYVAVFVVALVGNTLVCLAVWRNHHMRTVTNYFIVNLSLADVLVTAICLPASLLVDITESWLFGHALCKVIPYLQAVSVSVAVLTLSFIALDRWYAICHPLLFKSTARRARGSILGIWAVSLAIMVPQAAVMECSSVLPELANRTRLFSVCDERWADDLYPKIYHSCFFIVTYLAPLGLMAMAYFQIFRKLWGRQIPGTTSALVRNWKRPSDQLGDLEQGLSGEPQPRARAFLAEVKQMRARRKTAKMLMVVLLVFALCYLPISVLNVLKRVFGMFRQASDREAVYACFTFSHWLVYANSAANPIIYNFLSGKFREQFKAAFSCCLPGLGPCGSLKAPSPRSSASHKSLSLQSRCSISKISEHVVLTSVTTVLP
Protocol: (§1) Cells expressing human orexin 1 or human orexin 2 receptors, were seeded at 8,000 cells/well in 384 well black-walled clear bottom, poly-D-lysine coated plates. After 24 h, the medium was removed and cells were washed once with phosphate buffered saline and serum-deprived overnight in assay buffer (130 mM NaCl, 5.4 mM KCl, 1.8 mM CaCl2, 0.8 mM MgSO4, 0.9 mM NaH2PO4, 25 mM glucose, 20 mM HEPES, pH 7.4) containing bovine serum albumin (1% w/v).
(§2) On the day of the experiment, the cells seeded in black plates were treated with assay buffer containing the Ca^2+ sensitive fluorescent dye Fluo-4-AM (2 μM), and probenecid (0.1 mM). After 1 h plates were washed twice with, and resuspended in, assay buffer containing probenecid (0.1 mM) using a multi plate washer. The plates were placed into a FLIPR II (Fluorometric Imaging Plate Reader, Molecular Devices, Sunnyvale, Calif., USA) and baseline fluorescence (fluorescence light units, FLU) was measured (5 measurements, 2 S each; laser excitation 488 nm at 0.6-1 W, CCD camera exposure 0.4 s) before addition of buffer alone (basal) or containing test compounds (either compound of formula I alone, agonist alone or agonist in the presence of various concentrations of compounds of formula I). Fluorescence measurements were then continued every 1 S for 120 S followed by every 4 S for 240 S.
(§3) The measurements were typically made in two sequences:
(§4) Compounds of formula I were tested usually in a concentration range from 10^−9 M to 10^−5 M.
(§5) In the second round, performed one hour later (to allow for equilibration), Orexin A was tested either in the absence (calibration curves, Orexin A agonist controls) or in the presence of compounds of formula I to determine antagonism.

[2] = target: T1, human orexin 1 receptor (hOx1R); experiment: Radioligand binding assay ([125I]orexin A competition), hOx1R; settings: CHO or HEK cell membranes, 1 h room temperature
Protocol: (§6) For crude cell membrane preparations, cells (CHO, Chinese hamster ovary or HEK, human embryonic kidney) expressing human orexin 1 or human orexin 2 receptors, were washed with HEPES (10 mM, pH 7.5), scraped off the culture plates with the same buffer, and centrifuged at 4° C. for 5 min at 2500×g. The cell pellet was either stored at −80° C. or used directly. Before the experiments, cell membranes were re-suspended in binding assay buffer (10 mM HEPES, 0.5% (w/v) bovine serum albumin, pH 7.5) by homogenisation with a Polytron homogeniser at 50 Hz for 20 s. Cell membranes were also used as made available by commercial providers.
(§7) In initial saturation experiments (to calculate Bmax), cell homogenates (150 μl) were incubated with 25-300 pM of the radioligand ([^125I]orexin A, 50 μl), 8 concentrations in triplicates in the presence or absence Orexin A (1 μM, 50 μl) to define non specific binding. Bound radioactivity was measured, and data were analysed with the program XLFIT or Graphpad Prism. Protein concentration was determined according to the Bradford/BioRad Protein Assay Kit.
(§8) In competition experiments, cell homogenates (150 μl) were incubated in assay buffer (10 mM HEPES, pH 7.5, 0.5% (w/v) bovine serum albumin, 5 mM MgCl2, […], and tween 0.05%) for 1 h at room temperature with about […] of the radioligand ([^125I]orexin A, 2100 Ci/mmole, 50 μl), and with various concentrations of compounds of the invention (50 μl) in triplicates; non-specific binding was determined in the presence of Orexin A (1 μM). Reactions were terminated by vacuum filtration, 3 washes of ice cold wash buffer (Tris-HCl pH 7.4/10 mM, with NaCl 154 mM). Competition data is expressed in Table 1 as Kd [μM].

[3] = target: T2, human orexin 2 receptor (hOx2R) (Homo sapiens, UniProt O43614); experiment: Radioligand binding assay ([125I]orexin A competition), hOx2R; settings: CHO or HEK cell membranes, 1 h room temperature
T2 construct: expressed in transfected cells
T2 sequence (O43614 1-444): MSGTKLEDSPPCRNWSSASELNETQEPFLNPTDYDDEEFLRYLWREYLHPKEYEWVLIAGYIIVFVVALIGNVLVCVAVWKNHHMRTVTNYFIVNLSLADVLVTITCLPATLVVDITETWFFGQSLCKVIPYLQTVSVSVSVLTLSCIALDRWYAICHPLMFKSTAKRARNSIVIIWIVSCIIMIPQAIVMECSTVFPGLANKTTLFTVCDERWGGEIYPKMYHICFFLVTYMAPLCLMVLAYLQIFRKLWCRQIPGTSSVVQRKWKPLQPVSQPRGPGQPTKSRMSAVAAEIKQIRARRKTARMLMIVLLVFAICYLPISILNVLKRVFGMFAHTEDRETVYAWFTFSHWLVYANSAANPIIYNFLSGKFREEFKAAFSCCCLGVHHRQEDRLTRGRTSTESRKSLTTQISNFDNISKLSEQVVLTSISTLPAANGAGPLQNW
Protocol: as §6, §7, §8

[4] = target: T2, human orexin 2 receptor (hOx2R); experiment: Calcium accumulation in cells (FLIPR), antagonism of orexin A, hOx2R; type: cell-based; settings: for pKd: cells expressing human orexin 2 receptor, IC50 vs orexin A converted by Cheng and Prusoff correction
Protocol: as §1, §2, §3, §4, §5

[5] = measured at a concentration of 10 μM of compound (cells marked ^a)

| SMILES | pKd [1] | pKd [2] | pKd [3] | pKd [4] | inhibition at 10 µM [4, 5] [%] | inhibition at 10 µM [1, 5] [%] |
| --- | --- | --- | --- | --- | --- | --- |
| CCN(C(=O)c1cc(C(F)(F)F)cc(C(F)(F)F)c1)[C@H](CCNC(=O)c1ccccn1)Cc1ccccc1 [Example 10, Pyridine-2-carboxylic acid {(S)-3-[(3,5-bis-trifluoromethyl-benzoyl)-ethyl-amino]-4-phenyl-butyl}-amide] | 5.87 | 5.49 | 7.23 | 7.57 |  |  |
| CCCN(C(=O)c1cc(C(F)(F)F)cc(C(F)(F)F)c1)[C@H](CCNC(=O)c1ccccn1)Cc1ccccc1 [Example 22, Pyridine-2-carboxylic acid {(S)-3-[(3,5-bis-trifluoromethyl-benzoyl)-propyl-amino]-4-phenyl-butyl}-amide] | 5.80 | < 5.00 | 6.67 | 6.98 |  |  |
| CN(C(=O)c1cccc2[nH]ccc12)[C@H](CCNC(=O)c1nc2ccccc2n1C)Cc1ccccc1 [Example 3, 1-Methyl-1H-benzoimidazole-2-carboxylic acid {(S)-3-[(1H-indole-4-carbonyl)-methyl-amino]-4-phenyl-butyl}-amide] | 7.32 | 7.77 | 8.00 | 8.52 |  |  |
| Cc1cccc(C(=O)N(C)[C@H](CCNC(=O)c2ccccn2)Cc2ccccc2)c1 [Example 96, Pyridine-2-carboxylic acid {(S)-3-[methyl-(3-methyl-benzoyl)-amino]-4-phenyl-butyl}-amide] | 6.32 | 6.61 | 6.88 | 7.13 |  |  |
| CN(C(=O)c1cc(C(F)(F)F)cc(C(F)(F)F)c1)[C@H](CCNC(=O)c1ccccn1)Cc1ccccc1 [Example 5, Pyridine-2-carboxylic acid {(S)-3-[(3,5-bis-trifluoromethyl-benzoyl)-methyl-amino]-4-phenyl-butyl}-amide] | 6.29 | 6.00 | 7.74 | 8.10 |  |  |
| CN(C(=O)c1ccc2ccccc2c1)[C@@H](CCNC(=O)c1ccccn1)Cc1ccccc1 [Example 43, Pyridine-2-carboxylic acid {(R)-3-[methyl-(naphthalene-2-carbonyl)-amino]-4-phenyl-butyl}-amide] | 6.03 | 5.65 | 6.22 | 6.69 |  |  |
| CN(C(=O)c1cccc2ccccc12)[C@H](CCNC(=O)c1ccccn1)Cc1ccc(Cl)cc1 [Example 35, Pyridine-2-carboxylic acid {(S)-4-(4-chloro-phenyl)-3-[methyl-(naphthalene-1-carbonyl)-amino]-butyl}-amide] | 7.10 | 5.88 | 6.33 | 8.05 |  |  |
| CN(C(=O)c1cccc(OC(F)(F)F)c1)[C@H](CCNC(=O)c1cccn1C)Cc1ccccc1 [Example 123, 1-Methyl-1H-pyrrole-2-carboxylic acid {(S)-3-[methyl-(3-trifluoromethoxy-benzoyl)-amino]-4-phenyl-butyl}-amide] | 6.06 | 5.80 | 7.52 | 8.15 |  |  |
| CN(C(=O)c1ccc2c(c1)OCCO2)[C@H](CCNC(=O)c1ccccn1)Cc1ccccc1 [Example 71, Pyridine-2-carboxylic acid {(S)-3-[(2,3-dihydro-benzo[1,4]dioxine-6-carbonyl)-methyl-amino]-4-phenyl-butyl}-amide] | 5.71 | 5.79 | 5.02 |  | 28 |  |
| CN(C(=O)c1ccc2c(c1)OCO2)[C@H](CCNC(=O)c1cc2ccccc2n1C)Cc1ccccc1 [Example 75, 1-Methyl-1H-indole-2-carboxylic acid {(S)-3-[(benzo[1,3]dioxole-5-carbonyl)-methyl-amino]-4-phenyl-butyl}-amide] | 6.57 | 6.15 | 6.33 | 7.51 |  |  |
| CN(C(=O)c1cccc2c1OCO2)[C@@H](CCNC(=O)c1ccccn1)Cc1ccccc1 [Example 61, Pyridine-2-carboxylic acid {(R)-3-[(benzo[1,3]-dioxole-4-carbonyl)-methyl-amino]-4-phenyl-butyl}-amide] | 5.42 | 5.34 |  |  |  |  |
| COc1cc(Cl)cc(C(=O)N(C)[C@H](CCNC(=O)c2cccn2C)Cc2ccccc2)c1 [Example 106, 1-Methyl-1H-pyrrole-2-carboxylic acid {(S)-3-[(3-chloro-5-methoxy-benzoyl)-methyl-amino]-4-phenyl-butyl}-amide] | 7.08 | 7.30 | 8.52 |  |  |  |
| CN(C(=O)c1ccc2c(c1)OCO2)[C@@H](Cc1ccccc1)C(C)(C)CNC(=O)c1ccccn1 [Example 113, Pyridine-2-carboxylic acid {(S)-3-[(benzo[1,3]dioxole-5-carbonyl)-methyl-amino]-2,2-dimethyl-4-phenyl-butyl}-amide] |  |  | 6.27 | 6.30 |  | 24 |
| CN(C(=O)c1ccc2c(c1)OCO2)[C@@H](CCNC(=O)c1ccccn1)Cc1ccccc1 [Example 47, Pyridine-2-carboxylic acid {(R)-3-[(benzo[1,3]dioxole-5-carbonyl)-methyl-amino]-4-phenyl-butyl}-amide] | 5.20 | 4.91 |  |  |  |  |
| [2H]C([2H])(c1ccccc1)C(CCNC(=O)c1ccccn1)N(C)C(=O)c1ccc2c(c1)OCO2 (centres unmarked) [Example 110, Pyridine-2-carboxylic acid {3-[(benzo[1,3]dioxole-5-carbonyl)-methyl-amino]-4,4-dideutero-4-phenyl-butyl}-amide] | 5.76 | 5.86 |  |  |  |  |
| CN(C(=O)c1cccc2c1OCO2)[C@H](CCNC(=O)c1ccccn1)Cc1ccccc1 [Example 30, Pyridine-2-carboxylic acid {(S)-3-[(benzo[1,3]dioxole-4-carbonyl)-methyl-amino]-4-phenyl-butyl}-amide] | 5.66 | 5.96 |  |  |  |  |
| CN(C(=O)c1ccc2c(c1)OCO2)[C@H](CCNC(=O)c1ccccn1)Cc1ccccc1 [Example 1, Pyridine-2-carboxylic acid {(S)-3-[(benzo[1,3]dioxole-5-carbonyl)-methyl-amino]-4-phenyl-butyl}-amide] | 6.64 | 6.75 |  |  |  |  |
